# Source: US8722338B2, “Modulation of ABCG2-mediated urate transport to treat hyperuricemia and gout” (The Johns Hopkins University, priority 2009, dated 2014)
# “Also recorded” adds a separate entry of the source.
# Assays:
# endogenous ABCG2 = molecular target: T1, endogenous ABCG2 (Sus scrofa, UniProt Q8MIB3); assay: Urate accumulation in native LLC-PK1 renal proximal tubule cells; assay type: cell-based, porcine; conditions: 5 μM FTC; 120 min; polarized LLC-PK1 cells; 500 μM cold urate and 25 μM hot urate
# T1 construct: endogenous in cells; host or cells: LLC-PK1 porcine renal epithelial cells
# T1 sequence (Q8MIB3 1-656): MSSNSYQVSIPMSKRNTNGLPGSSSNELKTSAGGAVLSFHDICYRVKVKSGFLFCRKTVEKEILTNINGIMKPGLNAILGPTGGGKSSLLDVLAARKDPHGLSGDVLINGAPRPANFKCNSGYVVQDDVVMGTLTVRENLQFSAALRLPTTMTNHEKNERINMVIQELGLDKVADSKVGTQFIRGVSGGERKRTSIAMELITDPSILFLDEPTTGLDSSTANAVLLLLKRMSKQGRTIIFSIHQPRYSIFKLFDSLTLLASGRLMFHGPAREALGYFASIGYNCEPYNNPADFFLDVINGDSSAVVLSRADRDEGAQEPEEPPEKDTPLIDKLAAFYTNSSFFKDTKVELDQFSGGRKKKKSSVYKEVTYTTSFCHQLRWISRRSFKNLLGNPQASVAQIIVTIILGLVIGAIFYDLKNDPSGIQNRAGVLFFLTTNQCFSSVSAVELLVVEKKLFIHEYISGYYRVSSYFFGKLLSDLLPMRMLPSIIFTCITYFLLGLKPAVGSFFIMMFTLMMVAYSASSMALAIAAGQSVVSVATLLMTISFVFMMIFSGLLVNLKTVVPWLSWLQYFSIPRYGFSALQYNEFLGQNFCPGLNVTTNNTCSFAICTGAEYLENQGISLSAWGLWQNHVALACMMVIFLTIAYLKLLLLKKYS
# Method: LLC-PK1 porcine renal epithelial cells were cultured in Dulbecco's Modified Eagle medium (DMEM) supplemented with 10% FBS. LLC-PK1 cells were seeded at a high density into a 6-well plate and accumulation experiments were performed after the cells polarized. The cells were incubated in DMEM containing 500 μM cold urate and 25 μM hot urate with or without 5 μM FTC (US Biologicals); the incubation lasted 120 min. The cells were then washed four times with ice-cold DMEM and lysed with 500 μL of 1M NaOH. The lysate was collected and placed in a scintillation tubule along with 5 mL scintillation fluid and counted.
# human ABCG2 = human ABCG2 (Homo sapiens, UniProt Q9UNQ0); conditions: 5 μM FTC; oocytes injected with ABCG2 WT mRNA; C-14 urate
# Sequence of human ABCG2 (Q9UNQ0 whole entry): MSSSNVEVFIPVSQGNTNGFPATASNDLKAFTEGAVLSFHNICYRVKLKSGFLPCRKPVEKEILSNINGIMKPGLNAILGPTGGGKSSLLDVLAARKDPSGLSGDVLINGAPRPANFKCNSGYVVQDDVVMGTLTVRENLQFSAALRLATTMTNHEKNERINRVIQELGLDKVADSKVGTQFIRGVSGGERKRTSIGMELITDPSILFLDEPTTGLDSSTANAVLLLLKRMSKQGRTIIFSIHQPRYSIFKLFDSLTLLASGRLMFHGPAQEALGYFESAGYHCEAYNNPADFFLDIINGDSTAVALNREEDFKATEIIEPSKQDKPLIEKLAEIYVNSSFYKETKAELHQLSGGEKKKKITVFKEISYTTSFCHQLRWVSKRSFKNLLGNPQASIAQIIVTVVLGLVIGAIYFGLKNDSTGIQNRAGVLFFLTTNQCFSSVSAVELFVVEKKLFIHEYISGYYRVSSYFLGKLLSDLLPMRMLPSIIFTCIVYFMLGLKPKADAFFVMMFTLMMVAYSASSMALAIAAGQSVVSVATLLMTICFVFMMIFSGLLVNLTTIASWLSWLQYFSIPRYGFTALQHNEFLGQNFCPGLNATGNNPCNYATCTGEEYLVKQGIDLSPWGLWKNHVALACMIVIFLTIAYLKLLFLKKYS
# Method: Oocytes were removed from female pigmented Xenopus laevis (Xenopus 1 Inc.) and de-folliculated using collagenase A (Roche) in Ca^2+-free OR-2 ringer solution. Stage V-VI oocytes were selected and injected (Nanoinject II, Drummond Scientific) with 50 nL of either mRNA or H2O (as a control). All experiments were performed on the fourth day after injection. Oocytes after injection were cultured in a modified L-15 media (OR-3) and kept at 15-20° C. mRNA was prepared using the SP6 mMessage mMachine (Ambion Inc.) according to the manufactures protocol.
# Radiolabeled C-14 uric acid (American Radio-labeled Chemicals) was dissolved in a stock solution of 2 mM NaOH with a final urate concentration of 2 mM (either 2 mM hot-radio labeled urate or 1 mM hot and 1 mM cold urate). For oocyte transport experiments, the radio labeled C-14 urate was included at various concentrations in ND96 ringers solution (in mM: 96 NaCl, 2 KCl, 2 MgCl2, 5 Hepes, 1.8 CaCl2, pH 7.5, and 5 mM glucose for overnight incubation experiments).
# For accumulation studies, oocytes were incubated either for 1 or 2 h at room temperature in 50 μM C-14 urate or overnight in 500 μM C-14 urate at 15° C. After incubation the oocytes were washed in ice-cold ND96 solution 3-5 times to remove any superficial, residual C-14 urate from the oocytes. Oocytes were then pooled for scintillation counting. […]
structure (smiles),measurement,setting,value
"COc1ccc2c3c([nH]c2c1)[C@H](C=C(C)C)N1C(=O)[C@@H]2CCCN2C(=O)[C@@H]1C3 [FTC, fumitremorgin C]",urate export / intracellular urate accumulation compared with non-treated control cells,endogenous ABCG2,inhibits urate export; also recorded: significantly higher intracellular urate accumulation
same,reduced urate accumulation in ABCG2-expressing oocytes in the presence of inhibitor,human ABCG2,absent
